Data published in US9340590B2 (priority 2011, dated 2016).
Like-named read-outs stand apart in the source and are kept apart here. Positions of bridges follow the written chain, without caps; N, C: chain ends. Non-standard residues stand in square brackets, D forms with d. Residues, ends and D or L forms follow the SMILES beside them. 1Nal = N[C@@H](Cc1cccc2ccccc12)C(=O)O

Legend:
Experiment in all cases: cell-based
[1] = target: hNav1.7 (Homo sapiens, UniProt Q15858); format: cell-based
[2] = target: hNav1.5 (Homo sapiens, UniProt Q14524)
[3] = target: hNav1.3 (Homo sapiens, UniProt Q9NY46); conditions: IonWorks Quattro, read-out: IWQ Use Nav1.3
[4] = IonWorks Quattro, use-dependent block, hNav1.7, read-out: IWQ Use Nav1.7
[5] = IonWorks Quattro, use-dependent block, hNav1.5, read-out: IWQ Use Nav1.5

Sequence of hNav1.7 (Q15858 whole entry, looked up): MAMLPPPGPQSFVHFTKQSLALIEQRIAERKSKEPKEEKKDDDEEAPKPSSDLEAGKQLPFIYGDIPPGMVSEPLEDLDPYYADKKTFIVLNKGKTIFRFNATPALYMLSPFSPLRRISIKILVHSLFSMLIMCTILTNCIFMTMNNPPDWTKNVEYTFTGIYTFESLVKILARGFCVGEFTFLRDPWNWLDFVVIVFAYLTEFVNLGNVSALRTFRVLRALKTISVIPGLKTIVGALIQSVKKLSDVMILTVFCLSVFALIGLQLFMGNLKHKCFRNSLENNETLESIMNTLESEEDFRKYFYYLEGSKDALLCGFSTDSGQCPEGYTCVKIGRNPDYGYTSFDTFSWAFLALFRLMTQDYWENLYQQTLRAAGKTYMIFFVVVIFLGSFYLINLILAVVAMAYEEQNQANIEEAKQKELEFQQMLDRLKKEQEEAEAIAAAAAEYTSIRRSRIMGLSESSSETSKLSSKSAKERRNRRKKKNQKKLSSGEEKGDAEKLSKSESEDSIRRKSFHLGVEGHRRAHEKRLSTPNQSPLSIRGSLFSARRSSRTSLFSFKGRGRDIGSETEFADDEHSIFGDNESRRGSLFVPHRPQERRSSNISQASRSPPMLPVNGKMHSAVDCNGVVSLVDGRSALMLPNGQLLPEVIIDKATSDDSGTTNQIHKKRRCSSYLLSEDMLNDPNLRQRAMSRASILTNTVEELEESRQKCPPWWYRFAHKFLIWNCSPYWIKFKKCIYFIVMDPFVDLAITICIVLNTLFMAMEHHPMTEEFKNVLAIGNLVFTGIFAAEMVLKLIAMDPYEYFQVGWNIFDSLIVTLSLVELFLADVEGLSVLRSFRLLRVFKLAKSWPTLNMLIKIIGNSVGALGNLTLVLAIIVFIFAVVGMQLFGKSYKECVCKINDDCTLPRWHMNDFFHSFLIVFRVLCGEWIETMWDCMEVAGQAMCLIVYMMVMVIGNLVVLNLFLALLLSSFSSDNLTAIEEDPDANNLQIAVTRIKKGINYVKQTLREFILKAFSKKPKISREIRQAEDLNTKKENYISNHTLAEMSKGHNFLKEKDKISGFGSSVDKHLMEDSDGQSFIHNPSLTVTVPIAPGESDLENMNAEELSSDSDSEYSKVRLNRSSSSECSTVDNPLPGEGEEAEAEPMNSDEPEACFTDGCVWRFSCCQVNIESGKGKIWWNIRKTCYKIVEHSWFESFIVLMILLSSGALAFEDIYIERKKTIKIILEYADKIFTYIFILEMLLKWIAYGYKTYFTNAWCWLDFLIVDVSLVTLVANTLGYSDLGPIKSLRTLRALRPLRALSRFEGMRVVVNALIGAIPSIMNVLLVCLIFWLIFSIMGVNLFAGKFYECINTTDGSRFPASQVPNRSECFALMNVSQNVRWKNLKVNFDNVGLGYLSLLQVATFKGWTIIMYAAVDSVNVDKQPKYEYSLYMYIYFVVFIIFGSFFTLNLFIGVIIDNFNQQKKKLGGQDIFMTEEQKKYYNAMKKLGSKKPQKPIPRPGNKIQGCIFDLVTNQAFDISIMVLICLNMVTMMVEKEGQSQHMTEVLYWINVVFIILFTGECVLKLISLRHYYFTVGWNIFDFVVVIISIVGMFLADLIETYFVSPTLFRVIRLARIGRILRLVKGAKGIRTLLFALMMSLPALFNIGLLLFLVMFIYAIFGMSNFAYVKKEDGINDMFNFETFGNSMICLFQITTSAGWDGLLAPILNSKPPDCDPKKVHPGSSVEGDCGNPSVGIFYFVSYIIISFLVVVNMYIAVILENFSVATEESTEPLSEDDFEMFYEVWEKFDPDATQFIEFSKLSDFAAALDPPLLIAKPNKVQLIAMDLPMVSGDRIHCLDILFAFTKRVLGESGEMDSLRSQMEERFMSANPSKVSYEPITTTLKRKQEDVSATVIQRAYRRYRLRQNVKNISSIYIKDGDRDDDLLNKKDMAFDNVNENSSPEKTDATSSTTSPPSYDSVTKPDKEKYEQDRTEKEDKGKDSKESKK
Sequence of hNav1.5 (Q14524 whole entry, looked up): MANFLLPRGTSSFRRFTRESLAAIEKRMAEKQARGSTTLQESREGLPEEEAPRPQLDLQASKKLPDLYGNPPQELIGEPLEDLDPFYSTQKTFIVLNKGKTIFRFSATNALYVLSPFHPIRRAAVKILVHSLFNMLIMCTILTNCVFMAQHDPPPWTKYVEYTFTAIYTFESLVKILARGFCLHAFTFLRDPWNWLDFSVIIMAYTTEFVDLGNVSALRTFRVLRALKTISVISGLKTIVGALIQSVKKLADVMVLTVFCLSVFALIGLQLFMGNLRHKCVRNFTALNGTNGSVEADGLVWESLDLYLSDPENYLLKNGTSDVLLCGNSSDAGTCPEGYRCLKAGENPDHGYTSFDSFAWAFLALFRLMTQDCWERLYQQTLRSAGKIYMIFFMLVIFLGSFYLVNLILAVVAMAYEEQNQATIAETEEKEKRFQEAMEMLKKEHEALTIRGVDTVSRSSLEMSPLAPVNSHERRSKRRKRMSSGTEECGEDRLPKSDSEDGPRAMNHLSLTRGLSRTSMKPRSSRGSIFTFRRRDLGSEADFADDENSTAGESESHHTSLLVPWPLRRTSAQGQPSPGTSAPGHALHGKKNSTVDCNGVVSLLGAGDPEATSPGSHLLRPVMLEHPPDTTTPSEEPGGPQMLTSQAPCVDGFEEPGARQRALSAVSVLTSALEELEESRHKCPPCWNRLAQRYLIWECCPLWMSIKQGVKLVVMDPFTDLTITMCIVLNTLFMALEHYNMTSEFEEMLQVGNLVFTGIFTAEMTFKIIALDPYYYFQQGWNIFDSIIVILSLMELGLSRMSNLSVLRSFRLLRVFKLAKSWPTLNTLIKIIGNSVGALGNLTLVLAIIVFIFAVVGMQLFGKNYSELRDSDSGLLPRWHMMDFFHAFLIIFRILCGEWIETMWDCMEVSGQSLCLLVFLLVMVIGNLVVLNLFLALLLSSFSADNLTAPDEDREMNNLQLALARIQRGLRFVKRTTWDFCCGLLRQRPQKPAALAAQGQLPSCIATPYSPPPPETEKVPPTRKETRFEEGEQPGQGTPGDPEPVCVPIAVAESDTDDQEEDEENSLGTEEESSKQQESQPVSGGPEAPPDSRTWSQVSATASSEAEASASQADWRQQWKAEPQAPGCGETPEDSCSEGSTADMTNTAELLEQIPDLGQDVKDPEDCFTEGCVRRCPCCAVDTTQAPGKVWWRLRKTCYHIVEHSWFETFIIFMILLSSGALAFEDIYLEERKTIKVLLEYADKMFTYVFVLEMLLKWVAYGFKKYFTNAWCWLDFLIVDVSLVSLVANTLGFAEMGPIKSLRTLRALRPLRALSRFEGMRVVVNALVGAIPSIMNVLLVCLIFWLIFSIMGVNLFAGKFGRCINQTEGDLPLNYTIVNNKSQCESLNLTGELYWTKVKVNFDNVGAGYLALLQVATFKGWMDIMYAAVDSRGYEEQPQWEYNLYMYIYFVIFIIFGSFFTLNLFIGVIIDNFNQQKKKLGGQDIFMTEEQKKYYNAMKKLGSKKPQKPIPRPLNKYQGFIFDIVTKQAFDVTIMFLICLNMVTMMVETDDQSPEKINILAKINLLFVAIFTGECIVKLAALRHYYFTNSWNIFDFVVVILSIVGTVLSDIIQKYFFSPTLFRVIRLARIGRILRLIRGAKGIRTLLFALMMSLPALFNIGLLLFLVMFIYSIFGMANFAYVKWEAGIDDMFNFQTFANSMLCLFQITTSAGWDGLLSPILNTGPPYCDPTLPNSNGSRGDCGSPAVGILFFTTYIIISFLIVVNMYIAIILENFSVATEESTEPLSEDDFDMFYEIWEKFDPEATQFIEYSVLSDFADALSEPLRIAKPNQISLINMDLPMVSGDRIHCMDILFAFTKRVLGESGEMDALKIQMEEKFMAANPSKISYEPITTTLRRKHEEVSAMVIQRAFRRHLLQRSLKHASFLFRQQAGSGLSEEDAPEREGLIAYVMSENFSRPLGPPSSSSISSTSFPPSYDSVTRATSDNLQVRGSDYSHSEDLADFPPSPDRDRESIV

Compound	IC50 [1, 4] [nM]	IC50 [2, 5] [µM]	IC50 ([3]; use-dependent block, hNav1.3) [nM]	IC50 ([2]; IWQ Use Nav1.5 (μM)) [µM]	IC50 [1] [nM]	IC50 ([1]; IonWorks Quattro, Use, read-out: IWQ Use Nav1.7) [nM]	IC50 ([2]; IonWorks Quattro, Use, read-out: IWQ Use Nav1.5) [µM]	IC50 ([3]; Use) [nM]
CC[C@H](C)[C@@H]1NC(=O)[C@@H]2CSSC[C@@H]3NC(=O)[C@H](C(C)C)NC(=O)[C@H](CC(C)C)NC(=O)[C@H](CC(N)=O)NC(=O)[C@@H]4CCCN4C(=O)[C@H](CCCNC(=N)N)NC(=O)[C@H](CSSC[C@H](NC(=O)[C@@H](N)CC(=O)O)C(=O)N[C@@H](CC(C)C)C(=O)NCC(=O)N[C@@H](C)C(=O)N[C@@H](CCSC)C(=O)N[C@@H](CCCNC(=N)N)C(=O)N[C@@H](CCCCN)C(=O)N2)NC(=O)[C@H](CSSC[C@@H](C(=O)N[C@@H](CCCCN)C(=O)N[C@@H](Cc2cccc4ccccc24)C(=O)N[C@H](C(=O)N[C@@H](Cc2ccccc2)C(N)=O)C(C)C)NC(=O)[C@H](Cc2c[nH]c4ccccc24)NC(=O)[C@H](CCCCN)NC(=O)[C@H](Cc2c[nH]cn2)NC(=O)[C@H]([C@@H](C)O)NC(=O)[C@H](CCCNC(=N)N)NC(=O)[C@H](CO)NC3=O)NC(=O)[C@H](CCCCN)NC(=O)[C@H](CC(=O)O)NC(=O)[C@H](CC(N)=O)NC(=O)[C@H](CC(=O)O)NC(=O)[C@@H]2CCCN2C1=O [compound 254] (H-DCLGAMRKCIPDNDKCCRPNLVCSRTHKWCK[1Nal]VF-NH2; disulfide 2-17, 9-23, 16-30)	60	5	200	–	–	–	–	–
CC[C@H](C)[C@@H]1NC(=O)[C@@H]2CSSC[C@@H]3NC(=O)[C@H](C(C)C)NC(=O)[C@H](CC(C)C)NC(=O)[C@H](CC(N)=O)NC(=O)[C@@H]4CCCN4C(=O)[C@H](CCCNC(=N)N)NC(=O)[C@H](CSSC[C@H](NC(=O)[C@@H](N)CC(=O)O)C(=O)N[C@@H](CC(C)C)C(=O)NCC(=O)N[C@@H](C)C(=O)N[C@@H](CCSC)C(=O)N[C@@H](CCCNC(=N)N)C(=O)N[C@@H](CCCCN)C(=O)N2)NC(=O)[C@H](CSSC[C@@H](C(=O)N[C@@H](CCCCN)C(=O)N[C@@H](Cc2ccc(O)cc2)C(=O)N[C@H](C(=O)N[C@@H](Cc2ccccc2)C(N)=O)C(C)C)NC(=O)[C@H](Cc2c[nH]c4ccccc24)NC(=O)[C@H](CCCCN)NC(=O)[C@H](Cc2cnc[nH]2)NC(=O)[C@H](CC(C)C)NC(=O)[C@H](CCCNC(=N)N)NC(=O)[C@H](CO)NC3=O)NC(=O)[C@H](CCCCN)NC(=O)[C@H](CC(=O)O)NC(=O)[C@H](CC(N)=O)NC(=O)[C@H](CC(=O)O)NC(=O)[C@@H]2CCCN2C1=O [compound 255] (H-DCLGAMRKCIPDNDKCCRPNLVCSRLHKWCKYVF-NH2; disulfide 2-17, 9-23, 16-30)	280	–	680	5	–	–	–	–
CC[C@H](C)[C@@H]1NC(=O)[C@@H]2CSSC[C@@H]3NC(=O)[C@H](C(C)C)NC(=O)[C@H](CC(C)C)NC(=O)[C@H](CC(N)=O)NC(=O)[C@@H]4CCCN4C(=O)[C@H](CCCNC(=N)N)NC(=O)[C@H](CSSC[C@H](NC(=O)[C@@H](N)CC(=O)O)C(=O)N[C@@H](CC(C)C)C(=O)NCC(=O)N[C@@H](C)C(=O)N[C@@H](Cc4cccc5ccccc45)C(=O)N[C@@H](CCCNC(=N)N)C(=O)N[C@@H](CCCCN)C(=O)N2)NC(=O)[C@H](CSSC[C@@H](C(=O)N[C@@H](CCCCN)C(=O)N[C@@H](Cc2ccc(O)cc2)C(=O)N[C@H](C(=O)N[C@@H](Cc2ccccc2)C(N)=O)C(C)C)NC(=O)[C@H](Cc2c[nH]c4ccccc24)NC(=O)[C@H](CCCCN)NC(=O)[C@H](Cc2cnc[nH]2)NC(=O)[C@H]([C@@H](C)O)NC(=O)[C@H](CCCNC(=N)N)NC(=O)[C@H](CO)NC3=O)NC(=O)[C@H](CCCCN)NC(=O)[C@H](CC(=O)O)NC(=O)[C@H](CC(N)=O)NC(=O)[C@H](CC(=O)O)NC(=O)[C@@H]2CCCN2C1=O [compound 256]	100	5	60	–	–	–	–	–
CC[C@H](C)[C@@H]1NC(=O)[C@@H]2CSSC[C@@H]3NC(=O)[C@H](C(C)C)NC(=O)[C@H](CC(C)C)NC(=O)[C@H](CC(N)=O)NC(=O)[C@@H]4CCCN4C(=O)[C@H](CCCNC(=N)N)NC(=O)[C@H](CSSC[C@H](NC(=O)[C@@H](N)CC(=O)O)C(=O)N[C@@H](CC(C)C)C(=O)NCC(=O)N[C@@H](C)C(=O)N[C@@H](CCSC)C(=O)N[C@@H](CCCNC(=N)N)C(=O)N[C@@H](CCCCN)C(=O)N2)NC(=O)[C@H](CSSC[C@@H](C(=O)N[C@@H](CCCCN)C(=O)N[C@@H](Cc2ccc(O)cc2)C(=O)N[C@@H](Cc2cccc4ccccc24)C(=O)N[C@@H](Cc2ccccc2)C(N)=O)NC(=O)[C@H](Cc2c[nH]c4ccccc24)NC(=O)[C@H](CCCCN)NC(=O)[C@H](Cc2c[nH]cn2)NC(=O)[C@H]([C@@H](C)O)NC(=O)[C@H](CCCNC(=N)N)NC(=O)[C@H](CO)NC3=O)NC(=O)[C@H](CCCCN)NC(=O)[C@H](CC(=O)O)NC(=O)[C@H](CC(N)=O)NC(=O)[C@H](CC(=O)O)NC(=O)[C@@H]2CCCN2C1=O [compound 258] (H-DCLGAMRKCIPDNDKCCRPNLVCSRTHKWCKY[1Nal]F-NH2; disulfide 2-17, 9-23, 16-30)	380	–	800	5	–	–	–	–
CC[C@H](C)[C@@H]1NC(=O)[C@@H]2CSSC[C@@H]3NC(=O)[C@H](C(C)C)NC(=O)[C@H](CC(C)C)NC(=O)[C@H](CC(N)=O)NC(=O)[C@@H]4CCCN4C(=O)[C@H](CCCNC(=N)N)NC(=O)[C@H](CSSC[C@H](NC(=O)[C@@H](N)CC(=O)O)C(=O)N[C@@H](CC(C)C)C(=O)NCC(=O)N[C@@H](C)C(=O)N[C@@H](CCSC)C(=O)N[C@@H](CCCNC(=N)N)C(=O)N[C@@H](CCCCN)C(=O)N2)NC(=O)[C@H](CSSC[C@@H](C(=O)N[C@@H](CCCCN)C(=O)N[C@@H](Cc2ccc(O)cc2)C(=O)N[C@H](C(=O)N[C@@H](Cc2ccccc2)C(N)=O)C(C)C)NC(=O)[C@H](Cc2c[nH]c4ccccc24)NC(=O)[C@H](CCCNC(=N)N)NC(=O)[C@H](Cc2c[nH]cn2)NC(=O)[C@H]([C@@H](C)O)NC(=O)[C@H](CCCNC(=N)N)NC(=O)[C@H](CO)NC3=O)NC(=O)[C@H](CCCCN)NC(=O)[C@H](CC(=O)O)NC(=O)[C@H](CC(N)=O)NC(=O)[C@H](CC(=O)O)NC(=O)[C@@H]2CCCN2C1=O [compound 260] (H-DCLGAMRKCIPDNDKCCRPNLVCSRTHRWCKYVF-NH2; disulfide 2-17, 9-23, 16-30)	330	5	240	–	–	–	–	–
CC[C@H](C)[C@@H]1NC(=O)[C@@H]2CSSC[C@@H]3NC(=O)[C@H](C(C)C)NC(=O)[C@H](CC(C)C)NC(=O)[C@H](CC(N)=O)NC(=O)[C@@H]4CCCN4C(=O)[C@H](CCCNC(=N)N)NC(=O)[C@H](CSSC[C@H](NC(=O)[C@@H](N)CC(=O)O)C(=O)N[C@@H](CC(C)C)C(=O)NCC(=O)N[C@@H](C)C(=O)N[C@@H](Cc4c[nH]c5ccccc45)C(=O)N[C@@H](CCCNC(=N)N)C(=O)N[C@@H](CCCCN)C(=O)N2)NC(=O)[C@H](CSSC[C@@H](C(=O)N[C@@H](CCCCN)C(=O)N[C@@H](Cc2ccc(O)cc2)C(=O)N[C@H](C(=O)N[C@@H](Cc2ccccc2)C(N)=O)C(C)C)NC(=O)[C@H](Cc2c[nH]c4ccccc24)NC(=O)[C@H](CCCCN)NC(=O)[C@H](Cc2cnc[nH]2)NC(=O)[C@H]([C@@H](C)O)NC(=O)[C@H](CCCNC(=N)N)NC(=O)[C@H](CO)NC3=O)NC(=O)[C@H](CCCCN)NC(=O)[C@H](CC(=O)O)NC(=O)[C@H](CC(N)=O)NC(=O)[C@H](CC(=O)O)NC(=O)[C@@H]2CCCN2C1=O [compound 261] (H-DCLGAWRKCIPDNDKCCRPNLVCSRTHKWCKYVF-NH2; disulfide 2-17, 9-23, 16-30)	–	5	670	–	1010	–	–	–
CC[C@H](C)[C@@H]1NC(=O)[C@@H]2CSSC[C@@H]3NC(=O)[C@H](C(C)C)NC(=O)[C@H](CC(C)C)NC(=O)[C@H](CC(N)=O)NC(=O)[C@@H]4CCCN4C(=O)[C@H](CCCNC(=N)N)NC(=O)[C@H](CSSC[C@H](NC(=O)[C@@H](N)CC(=O)O)C(=O)N[C@@H](CC(C)C)C(=O)NCC(=O)N[C@@H](C)C(=O)N[C@@H](Cc4ccccc4)C(=O)N[C@@H](CCCNC(=N)N)C(=O)N[C@@H](CCCCN)C(=O)N2)NC(=O)[C@H](CSSC[C@@H](C(=O)N[C@@H](CCCCN)C(=O)N[C@@H](Cc2ccc(O)cc2)C(=O)N[C@H](C(=O)N[C@@H](Cc2ccccc2)C(N)=O)C(C)C)NC(=O)[C@H](Cc2c[nH]c4ccccc24)NC(=O)[C@H](CCCCN)NC(=O)[C@H](Cc2cnc[nH]2)NC(=O)[C@H](CC(C)C)NC(=O)[C@H](CCCNC(=N)N)NC(=O)[C@H](CO)NC3=O)NC(=O)[C@H](CCCCN)NC(=O)[C@H](CC(=O)O)NC(=O)[C@H](CC(N)=O)NC(=O)[C@H](CC(=O)O)NC(=O)[C@@H]2CCCN2C1=O [compound 263] (H-DCLGAFRKCIPDNDKCCRPNLVCSRLHKWCKYVF-NH2; disulfide 2-17, 9-23, 16-30)	80	–	50	5	–	–	–	–
CSCC[C@@H]1NC(=O)[C@H](Cc2ccccc2)NC(=O)CNC(=O)[C@H](CC(C)C)NC(=O)[C@@H](NC(=O)[C@@H](N)CC(=O)O)CSSC[C@@H]2NC(=O)[C@@H]3CSSC[C@@H](C(=O)N[C@@H](CCCCN)C(=O)N[C@@H](Cc4ccc(O)cc4)C(=O)N[C@H](C(=O)N[C@@H](Cc4ccccc4)C(N)=O)C(C)C)NC(=O)[C@H](Cc4c[nH]c5ccccc45)NC(=O)[C@H](CCCCN)NC(=O)[C@H](Cc4cnc[nH]4)NC(=O)[C@H]([C@@H](C)O)NC(=O)[C@H](CCCNC(=N)N)NC(=O)[C@H](CO)NC(=O)[C@H](CSSC[C@H](NC(=O)[C@H](CCCCN)NC(=O)[C@H](CCCNC(=N)N)NC1=O)C(=O)N[C@@H](CC(C)C)C(=O)N1CCC[C@H]1C(=O)N[C@@H](CC(=O)O)C(=O)N[C@@H](CC(N)=O)C(=O)N[C@@H](CC(=O)O)C(=O)N[C@@H](CCCCN)C(=O)N3)NC(=O)[C@H](C(C)C)NC(=O)[C@H](CC(C)C)NC(=O)[C@H](CC(N)=O)NC(=O)[C@@H]1CCCN1C(=O)[C@H](CCCNC(=N)N)NC2=O [compound 303] (H-DCLGFMRKCLPDNDKCCRPNLVCSRTHKWCKYVF-NH2; disulfide 2-17, 9-23, 16-30)	–	–	–	–	–	130	8.13	80
